{
  "source": "paper PMC2829425",
  "about": "(Protein expression and purification, 2010)",
  "molecules": {"B1": {"name": "zebrafish monoamine oxidase (zMAO) (Danio rerio) (protein)", "chain": "MTANAYDVIVIGGGISGLSAAKLLVDSGLNPVVLEARSRVGGRTYTVQNKETKWVDLGGAYIGPTQNRILRIAKQYGVKTYKVNEEESLVHYVKGKSYPFKGPFPPMWNPFAYMDYNNLWRTMDKMGMEIPKEAPWRAPHAEEWDKMTMQQLFDKICWTRSARRFATLFVNVNVTSEPHEVSALWFLWYVKQCGGTMRIFSTTNGGQERKFAGGANQISEGMARELGDRVKLSRAVCSIDQTGDLVEVRTVNEEVYKAKYVILAIPPGLNLKIHFNPELPPLRNQLIHRVPMGSVIKCMVYYKENFWRKKGYCGSMVIEEEDAPIGLTLDDTKPDGSVPAIMGFILARKSRKLANLTRDERKRRICEIYARVLGSEEALYPVHYEEKNWCEEEYSGGCYTAYFPPGIMTQFGRVLREPVGRLYFAGTETATEWSGYMEGAVQAGERASREVMCAMGKLHASQIWQSEPESMDVPARPFVTTFWERNLPSVGGFLKFMGVSSFLAAATAAGLVACKKGLLPRC"}},
  "key": {"[1]": {"target": "T1, zebrafish monoamine oxidase (zMAO) (Danio rerio, UniProt Q6NSN2)", "T1 sequence (Q6NSN2 1-522)": "B1 chain", "assay": "steady-state kinetics, benzaldehyde formation at […] nm", "type": "biochemical", "conditions": "read-out: Benzylamine"}, "[2]": {"target": "T1, zebrafish monoamine oxidase (zMAO)", "assay": "irreversible inhibition of purified enzyme", "type": "biochemical"}, "[3]": {"target": "T1, zebrafish monoamine oxidase (zMAO)", "assay": "specific activity of purified enzyme, 4-hydroxyquinoline formation at […] nm", "type": "biochemical"}, "[4]": {"substrate": "NCCc1ccccc1", "assay": "steady-state kinetics, Amplex red/peroxidase-coupled assay", "type": "biochemical, Danio rerio", "conditions": "covalent FAD ([…]α-S-cysteinylFAD); pH 7.4; 25.0 °C"}},
  "data": [
    {"molecule": "NCc1ccccc1", "note": "[Benzylamine]", "values": [
      {"measurement": "Km", "setting": "[1]", "result": "82.2 ± 9", "unit": "µM"}
    ]},
    {"molecule": "C#CCN(C)CCCOc1ccc(Cl)cc1Cl", "note": "[Clorgyline]", "values": [
      {"measurement": "IC50", "setting": "[2]", "result": 64, "unit": "µM"}
    ]},
    {"molecule": "C#CCN(C)C(C)Cc1ccccc1", "note": "(stereo not shown) [Deprenyl]", "values": [
      {"measurement": "IC50", "setting": "[2]", "result": 6.5, "unit": "µM"}
    ]},
    {"molecule": "NCCC(=O)c1ccccc1N", "note": "[Kynuramine]", "values": [
      {"measurement": "specific activity of purified enzyme, 4-hydroxyquinoline formation at 316 nm", "setting": "[3]", "result": 1.5, "unit": "U/mg"}
    ]},
    {"molecule": "B1", "values": [
      {"measurement": "Km", "setting": "[4]", "result": "86 ± 13", "unit": "µM"},
      {"measurement": "kcat", "setting": "[4]", "result": "3.4 ± 0.145", "unit": "s⁻¹"},
      {"measurement": "kcat/Km", "setting": "[4]", "result": "39500 ± 3170", "unit": "M⁻¹ s⁻¹"}
    ]}
  ]
}
